Source: US20050271736A1, “Pyrithione compound and microcapsule using the same” (Fuji Photo Film Co., Ltd., priority 2004, published 2005)

Test: Measurement of photo-decomposability of the compound in ethyl acetate solution (absorbance before/after UV exposure)
Type: physicochemical
Settings: 5.0×10^−5 mol/L in ethyl acetate
Method: The absorbance thereof was measured with an absorption photometer (Multichannel Detector PMA 11, trade name, manufactured by Hamamatsu Photonics K.K.). […] After this solution was exposed for 20 seconds by means of a fluorescent lamp of 23 watts having the central wavelength of light emission at 365 nm, which was placed at a distance of 45 mm, the absorbance thereof was measured in the same manner as the above.

- absorbance at 370 nm before exposure (1-cm quartz cell, before exposure): 0.64
- absorbance at 370 nm after exposure (exposed 20 seconds, 23 W fluorescent lamp, central wavelength 365 nm, distance 45 mm): 0.15
SMILES: OCCCCCCOc1cccn(OCCCCCCO)c1=S [I-1]
